Article PMC9387934, “Randomized single oral dose phase 1 study of safety, tolerability, and pharmacokinetics of Iminosugar UV-4 Hydrochloride (UV-4B) in healthy subjects” (PLoS Neglected Tropical Diseases, 2022)
Where a name gives a salt, the structure may show the parent alone.

Assays:
[1] = Prediction of human clearance and exposure by scaling of IV PK data from mouse, rat and dog against body weight
Method: Pharmacokinetic parameters seen in the Phase 1a study were compared to exposure and clearance data collected in animal studies to determine if consistent parameters are observed across species (detailed ADME and PK assessment in non-human species will be described in a manuscript in preparation). Nonclinical PK and excretion studies of UV-4 as the hydrochloride salt and UV-4 free base were conducted using the oral and IV routes of administration as single doses in mice, rats, ferrets, and dogs. […] Absorption was rapid following oral administration in each nonclinical species, in alignment with the median Tmax of 0.5 to 1 hour across all dose groups in the Phase 1a study.

[2] = design: method as in Investigator’s Brochure (IB); conditions: rat, average; ref Investigator’s Brochure (IB); cited from earlier work
[3] = design: method as in Investigator’s Brochure (IB); conditions: single oral dose, ferrets; ref Investigator’s Brochure (IB); cited from earlier work
CYP2A6 = tested on: CYP2A6; design: method as in Investigator’s Brochure (IB); conditions: in vitro; ref Investigator’s Brochure (IB); cited from earlier work
ER α-glucosidase enzymes = tested on: ER α-glucosidase enzymes; design: method as in PMID 32227946; conditions: single dose of UV-4; cited from earlier work
[4] = human, mouse, rat, and dog liver microsomes and hepatocytes; ref Investigator’s Brochure (IB); cited from earlier work
[5] = 14-day GLP toxicology study in mice (UV4-COV-036); conditions: Crl:CD1(ICR), mouse, in vivo, 300 mg/kg/day, read-out: Daily exposure at NOAEL [3 x AUC(0-8)]
Method: Fourteen-day studies were conducted in mice and dogs. […]
The inverted AST/ALT ratio […]
and lymphocyte depletion were reversible. Thymus weight decrease in females was reversible but thymus weight decreases in males were not. However, because the apparent […]
microscopic thymus findings, thymus weight differences at the recovery necropsy were considered not toxicologically important. In mice at 25 mg/kg/dose (75 mg/kg/day) there were decreased thymus weights (males), follicular epithelium vacuolation in the thyroid, and lymphoid depletion of the thymus (males). All findings were reversible but a NOEL was not present at this dose level. At the no NOAEL of 300 mg/kg/day, there were clinical hematology, chemistry, and anatomic pathology findings similar to those observed in the dogs. All findings were reversible.
Based on these observations, the NOAEL for UV-4B following 14 days of TID administration in mice is considered to be 300 mg/kg/day. This dose level corresponded to Day 14 mean Cmax […]
ng•h/mL, respectively. Daily exposure at NOAEL [calculated as 3 x AUC(0-8)] is estimated at 163,305 ng•h/mL. In dogs, the NOAEL following 14 days of TID administration is considered to be 30 mg/kg/day. At the end of the dosing phase, this dose level corresponded to average […]
Daily exposure [calculated as 3 x AUC(0-8)] is estimated at 32,820 ng•h/mL.
This material is the property of the Unither Virology. […]

[6] = design: method as in Investigator’s Brochure (IB); conditions: mice, 1000 mg/kg single dose; ref Investigator’s Brochure (IB); cited from earlier work
[7] = cited from earlier work
[8] = design: method as in Investigator’s Brochure (IB); conditions: ref Investigator’s Brochure (IB), cited from earlier work
[9] = design: method as in Investigator’s Brochure (IB); conditions: 50 mg/kg/day for 12 days; ref Investigator’s Brochure (IB); cited from earlier work
[10] = cited from earlier work; remark: listed apart in the source

In the case of `COCCCCCCCCCN1C[C@H](O)[C@@H](O)[C@H](O)[C@H]1CO` [UV-4, N-(9’-methoxynonyl)-1-deoxynojirimycin], the clearance ([1]; human, simple scaling of systemic clearance against body weight, IV PK data of mouse, rat and dog, read-out: Human systemic clearance, estimated (converted)) is given as 560 mL/min, the “Total exposure (AUC(0-inf)), predicted” value ([1]; starting dose of 3 mg, from scaled clearance) is given as 0.089 µg·h/mL and the Bioavailability [2] is given as at least 99%. The t1/2 [3] was 2 h, the “Direct inhibition of CYP2A6” value (CYP2A6) was “No clinically relevant direct inhibition” and the “Duration of pharmacodynamic effect on the target ER α-glucosidase enzymes” value (ER α-glucosidase enzymes) was “at least 72 hours”. The Metabolic stability [4] was “metabolically stable”.
In the case of `COCCCCCCCCCN1C[C@H](O)[C@@H](O)[C@H](O)[C@H]1CO` [UV-4B, N-(9’-methoxynonyl)-1-deoxynojirimycin hydrochloride], the AUC(0-t) [5] is listed as 163 µg·h/mL, the Respiratory function [6] is listed as “no adverse treatment-related effects” and the “No clinically relevant effects” value ([7]; dog CV single dose, 10 mg/kg) is listed as “−”. The Cardiovascular assessment ([7]; dogs, 10 mg/kg, ref Investigator’s Brochure (IB)) was “no clinically relevant effects”, the “Cardiovascular assessment, only change outside the normal range” value ([7]; dogs, 50 or 200 mg/kg, ref Investigator’s Brochure (IB)) was “decreased arterial pulse pressure” and the Fertility finding ([8]; male and female rats, 50 mg/kg/day before mating through Gestation Day 13) was “decreased pregnancy and fertility indices”. For the same molecule, the Finding in males ([8]; rats, all doses (8, 20, and 50 mg/kg/day)) was “decreased sperm motility”, the “Finding in rat offspring” value [9] was “increase in skeletal malformations” and the “Vacuoles in kidney (F)” value ([10]; rat, 25 TID mg/kg) was “P(F)”. For the same molecule, the “Swollen paws/legs and perioral appearance and red skin, paws and/or feet” value ([10]; rat, 60 TID mg/kg, second symbol (later day)) was “−”, the “Decreased lymphocytes in mesenteric lymph node (F)” value ([10]; rat, 60 TID mg/kg) was “P(F)” and the “Possible histamine-like in-life clinical signs” value ([10]; rats, 60 mg/kg/dose TID, Day 1 or Day 2, transient, ref Investigator’s Brochure (IB)) was “swollen paws/legs and perioral appearance”. For the same molecule, the “No observed effect level (NOEL)” value ([10]; rats, TID for seven days, lowest dose exceeded the NOEL, ref Investigator’s Brochure (IB)) was under 10 mg/kg/dose, the “Time to appearance of histamine-like signs after treatment” value ([10]; rats, first or second daily dose of 60 mg/kg/dose (TID), ref Investigator’s Brochure (IB)) was at most 120 min and the “Finding at 25 mg/kg/dose (TID)” value ([10]; rats, seven days, ref Investigator’s Brochure (IB)) was “dose-limiting erosions/ulcerations in the stomach”.
